This data set concerns the target IRF5. Conditions: ASO.

Several values for one entry are separate records, joined by “and”; a condition that tells them apart may be missing. Equal entries are not always repeated. After the bases stand the sugars from the 5' end (letter, count) and the backbone: PS all phosphorothioate, else s phosphorothioate and o phosphodiester by linkage. Methylation of C is not given here. [mop] = methoxypropylphosphonate linkage; e = 2'-O-(2-methoxyethyl) (MOE); k = constrained ethyl (cEt); d = 2'-deoxy (DNA)

For GGTTCTTGGACTCTCA (sugars k3 d10 k3, PS), the target mRNA inhibition (KARPAS-229, 0.44444 µM) is 52% and 54%; the target mRNA inhibition (KARPAS-229, 1.33333 µM) was 65% and 72%; the target mRNA inhibition (KARPAS-229, 12 µM) is 86% and 82%. For the sequence “CTTCTGCAGGGAGTCA (sugars kkddddddddddkeke, PS)”, the target mRNA inhibition (KARPAS-229, 4 µM) was 8%. For the setting “KARPAS-229, 4 µM”, “ATGAGTCATGGGCTGA (sugars kdddddddddkekeke, PS)” returned a target mRNA inhibition of 7%.

For AGGAAGTGAGTCTCAA (sugars k3 d10 k3, PS), the target mRNA inhibition (KARPAS-229, 4 µM) is 42%. For the sequence “CATTCCATATACACAC (sugars kdddddddddkekeke, PS)”, the target mRNA inhibition (KARPAS-229, 4 µM) was 7%. On the same count and under the same terms, next, “TTATTTCTGCTCCAGG (sugars k3 d9 k3 e1, PS)”: 28%; TTCTTGTCTAGTGTCA (sugars k3 d10 k3, PS): 49%. “TCACCACTGTGTACCC (sugars k3 d9 k3 e1, PS)” came in with a target mRNA inhibition (KARPAS-229, 4 µM) of 21%.

“AGGTTCTTGGACTCTC (sugars kekdddddddddeekk, PS)”: the target mRNA inhibition (KARPAS-229, 4 µM) came out at 0%. As to ACGAGTTATGGGAAGG (sugars k3 d10 k3, PS), the target mRNA inhibition was 50% (KARPAS-229, 0.44444 µM); 54% (KARPAS-229, 1.33333 µM); 74% and 73% (KARPAS-229, 4 µM); 81% (KARPAS-229, 12 µM).

The sequence ACGAGCAAAGGGTGAG (sugars k3 d10 k3, PS) showed a target mRNA inhibition (KARPAS-229, 4 µM) of 47%. Still for that read-out and setting: next, “AGTCATGGGCGTGAGGC (sugars kkddddddddkekekkd, PS)”: 17%; GAGTGAGACGAGCAAA (sugars k3 d10 k3, PS): 27%; “TATTTCTGCTCCAGGT (sugars kkdddddddddkekek, PS)”: 5%.

Where the note is “KARPAS-229, 4 µM”, TTGCCTTCTGCAGGGA (sugars k3 d10 k3, PS) showed a target mRNA inhibition of 0%.

Turning to “CCATTCTATGCCTTTT (sugars kkdddddddddkekek, PS)”, the target mRNA inhibition by setting is: (KARPAS-229, 0.44444 µM) 29%; (KARPAS-229, 4 µM) 62% and 61%; (KARPAS-229, 12 µM) 81%. For CCATTCTATGCCTTTT (sugars k3 d10 k3, PS), the target mRNA inhibition (KARPAS-229, 4 µM) was 43%. Still for that read-out and setting: next, “CAGGTTCTTGGACTCT (sugars kdddddddddkekeke, PS)”: 0%; “GCATTCCATATACACA (sugars k3 d9 k3 e1, PS)”: 25%; “CCCAATGCAACATCCA (sugars kkkdddddddddkeke, PS)”: 0%. The same measure, in the same setting: next, “GCATTCCATATACACA (sugars kekdddddddddeekk, PS)”: 48%; “CTGTCACATCTCCACA (sugars kkkddddddddkekek, PS)”: 0%. Where the note is “KARPAS-229, 4 µM”, “AGGAGTGAGACGAGCA (sugars kddddddddddkekek, PS)” had a target mRNA inhibition of 37%.

Consider “TTGTCTAGTGTCATGG (sugars kkddddddddddkeke, PS)”, for which the target mRNA inhibition (KARPAS-229, 4 µM) came out at 38%. Sequence “GTCTAGTGTCATGGAA (sugars kdddddddddkekeke, PS)” registered a target mRNA inhibition (KARPAS-229, 4 µM) of 35%. As for GGTGTATTTCCCTGTC (sugars k3 d10 k3, PS), the target mRNA inhibition is, setting by setting: (KARPAS-229, 0.44444 µM) 32% and 25%; (KARPAS-229, 1.33333 µM) 38% and 56%; (KARPAS-229, 12 µM) 69% and 67%. In the case of “CACTGACACAGGCGGA (sugars k3 d9 k3 e1, PS)”, the target mRNA inhibition (KARPAS-229, 4 µM) was 0%. Still for that read-out and setting: next, “GGTGTATTTCCCTGTC (sugars kkddddddddddkeke, PS)”: 21%. Turning to “CATTCCATATACACAC (sugars k2 d9 e3 k2, PS)”, the target mRNA inhibition (KARPAS-229, 4 µM) stood at 21%. The same measure, in the same setting: next, “TCTGGCCCTTTTGGAA (sugars kdddddddddkekeke, PS)”: 0%.

In the case of “ACCATTCTATGCCTTT (sugars kkkdddddddddkeke, PS)”, the target mRNA inhibition (KARPAS-229, 4 µM) came out at 49%. In turn, CTTTTTGCTCTAAACC (sugars k3 d10 k3, PS) came in with a target mRNA inhibition (KARPAS-229, 4 µM) of 0%. For “CTGATATGATACCTAA (sugars k3 d10 k3, linkages s5 [mop]1 s9)”, the target mRNA inhibition runs as follows: (A-431, 0.00412 µM) 0%; (A-431, 0.01225 µM) 15%; (A-431, 0.03704 µM) 25%; (A-431, 0.11111 µM) 54%; (A-431, 0.33333 µM) 71%; (A-431, 1 µM) 71%. Sequence “TATCTCCGTCCTGGCT (sugars kddddddddddkekek, PS)” displayed a target mRNA inhibition (KARPAS-229, 4 µM) of 0%. Same read-out and setting: next, GGTTCTTGGACTCTCA (sugars k2 d11 k3, PS): 47%; “GCTTGGTCTTGACCTC (sugars kkdddddddddkdkdk, PS)”: 11%; “TGAGTCATGGGCTGAG (sugars kkddddddddkekekk, PS)”: 0%. Same read-out and setting: next, “GGTTCTTGGACTCTCA (sugars kkdddddddddkdkdk, PS)”: 29%; “TTCTTGGACTCTCAAG (sugars kkddddddddkekekk, PS)”: 0%; “TTATTTCTGCTCCAGG (sugars kkkddddddddkekek, PS)”: 23%. The same measure, in the same setting: next, GTGTCATGGAATTTTG (sugars k3 d10 k3, PS): 58%; “CATTCCATATACACAC (sugars kekdddddddddeekk, PS)”: 24%.

“ACCATTCTATGCCTTT (sugars kkddddddddkekekk, PS)” registered a target mRNA inhibition (KARPAS-229, 4 µM) of 0%. “TGAGTCTCAAACCAGG (sugars k2 d8 e4 k2, PS)” gave a target mRNA inhibition (KARPAS-229, 4 µM) of 0%. Sequence “CCAATGCAACATCCAT (sugars k2 d8 e4 k2, PS)” gave a target mRNA inhibition (KARPAS-229, 4 µM) of 0%. Still for that read-out and setting: next, “AGGAAGTGAGTCTCAA (sugars kkkddddddddkekek, PS)”: 24%. On to TTGAATTTTGTGACTG (sugars k3 d10 k3, PS), for which the target mRNA inhibition (KARPAS-229, 4 µM) turned out to be 45%.

“TGCAACATCCATCAAT (sugars k3 d10 k2 d1, PS)” displayed a target mRNA inhibition (KARPAS-229, 4 µM) of 0%. Same read-out and setting: next, “TTGTCTAGTGTCATGG (sugars kekdddddddddeekk, PS)”: 55%. Still for that read-out and setting: next, TTGTGACTGTATTACC (sugars k3 d10 k3, PS): 56%. Sequence ACTGTATTACCTATAC (sugars k3 d10 k3, PS) had a target mRNA inhibition (KARPAS-229, 4 µM) of 22%. The same measure, in the same setting: next, “ATCACCACTGTGTACC (sugars kkkddddddddkdkdk, PS)”: 0%. Sequence “CAATTTTGCATTCCAT (sugars kddddddddddkekek, PS)” yielded a target mRNA inhibition (KARPAS-229, 4 µM) of 21%.

As for “AGATGGTGTTATCTCC (sugars kdddddddddkekeke, PS)”, the target mRNA inhibition (KARPAS-229, 4 µM) amounted to 0%. The same measure, in the same setting: next, “GCTGTCACATCTCCAC (sugars kkdddddddddkekek, PS)”: 5%. Regarding “GGTTCTTGGACTCTCA (sugars kkddddddddkekekk, PS)”, the target mRNA inhibition (KARPAS-229, 4 µM) worked out at 0%. The same measure, in the same setting: next, “ACTGACACAGGCGGAT (sugars k2 d9 e3 k2, PS)”: 0%; “CAATTTTGCATTCCAT (sugars kdddddddddkekeke, PS)”: 19%; “CACTGACACAGGCGGA (sugars kdddddddddkekeke, PS)”: 0%. On the same count and under the same terms, next, “AGGTTCTTGGACTCTC (sugars kkkdddddddddkeke, PS)”: 0%; AAGGGCACAGCGCAGG (sugars k3 d10 k3, PS): 48% and 42%.
